Results reported in patent publication US11466019B2, “Triazolo[4,5-d] pyramidine derivatives and their use as purine receptor antagonists” (Vernalis (R&D) Limited, priority 2008, dated 2022).

What was measured:
[1] = molecular target: T1, human adenosine A1 receptors (Homo sapiens, UniProt P30542); experiment: Adenosine receptor binding: binding affinities at hA1 receptors ([3H]DPCPX displacement); conditions: Table 1; for Ki: [3H]DPCPX displacement, CHO-K1 membranes, read-out: Binding Affinity hA1-Ki; for Binding Selectivity A1/A2a: ratio of Ki values
T1 construct: expressed in transfected cells; host or cells: CHO-K1
T1 sequence (P30542 1-326): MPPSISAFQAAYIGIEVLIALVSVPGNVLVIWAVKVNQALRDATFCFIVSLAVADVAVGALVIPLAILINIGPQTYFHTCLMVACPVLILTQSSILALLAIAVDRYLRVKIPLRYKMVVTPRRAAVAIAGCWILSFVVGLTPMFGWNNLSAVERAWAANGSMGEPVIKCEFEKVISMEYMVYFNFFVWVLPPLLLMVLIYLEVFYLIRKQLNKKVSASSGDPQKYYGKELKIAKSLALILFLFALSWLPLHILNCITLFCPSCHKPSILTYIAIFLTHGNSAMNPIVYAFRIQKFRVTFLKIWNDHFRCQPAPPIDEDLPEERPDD
Procedure: Adenosine Receptor Binding: Binding Affinities at hA1 Receptors
The resultant homogenate was kept for immediate use in the binding.
(§1) Binding assays were performed in a total volume of 250 μL, containing [^3H]-DPCPX (3.0 nM), membranes and additional drugs. Total binding was determined using drug dilution buffer (50 mM Tris-HCl pH:7.5, 10 mM MgCl2, 5% DMSO). Non-specific binding was determined using 300 μM N6-cyclohexyladenosine (CHA). […] Filters were left to dry overnight, and Microscint-0 scintillation fluid was then added to the filters. The filters were then left for at least 2 hours before the radioactivity was assessed using a Canberra Packard TopCount microplate scintillation counter.
To determine the free ligand concentration, three vials were counted with 25 μL of [^3H]DPCPX containing 4 mL of Ultima-Gold MV scintillant on a Beckman LS6500 multi-purpose scintillation counter.
(§2) Data was analysed using a 4 parameter logistical equation and non-linear regression which yields affinity constants (pIC50), and slope parameters:
(§3) [formula] where E is the quantity of binding and [A] is the competitor concentration. The Ki is then determined using the Cheng-Prusoff equation: […]

[2] = molecular target: T2, human adenosine A2A receptors (Homo sapiens, UniProt P29274); experiment: Adenosine receptor binding: binding affinities at hA2A receptors ([3H]CGS-21680 displacement); conditions: Table 1; [3H]CGS-21680 displacement, HEK-293 membranes; read-out: Binding Affinity hA2A-Ki
T2 construct: host or cells: HEK-293
Procedure: Adenosine Receptor Binding: Binding Affinities at hA2A Receptors
as §1, with “The resultant homogenate was kept for immediate use in the binding assay. Binding” for “Binding”, “[^3H]-CGS21680 (20.0” for “[^3H]-DPCPX (3.0”, “pH 7.5,” for “pH:7.5,”, “CHA.” for “N6-cyclohexyladenosine (CHA).”
To determine the free ligand concentration, three vials were counted with 25 μL of [^3H]CGS21680 containing 4 mL of Ultima-Gold MV scintillant on a Beckman LS6500 multi-purpose scintillation counter.
as §2, §3

hA2B receptors = molecular target: T3, hA2B receptors (Homo sapiens, UniProt P29275); experiment: Adenosine receptor binding: binding affinities at hA2B receptors ([3H]-ZM241385 displacement); conditions: Table 1; for Ki: [3H]-ZM241385 displacement, HEK-293 membranes, read-out: Binding Affinity hA2B-Ki; for Binding Selectivity A2b/A2a: ratio of Ki values
T3 construct: host or cells: HEK-293
T3 sequence (P29275 1-332): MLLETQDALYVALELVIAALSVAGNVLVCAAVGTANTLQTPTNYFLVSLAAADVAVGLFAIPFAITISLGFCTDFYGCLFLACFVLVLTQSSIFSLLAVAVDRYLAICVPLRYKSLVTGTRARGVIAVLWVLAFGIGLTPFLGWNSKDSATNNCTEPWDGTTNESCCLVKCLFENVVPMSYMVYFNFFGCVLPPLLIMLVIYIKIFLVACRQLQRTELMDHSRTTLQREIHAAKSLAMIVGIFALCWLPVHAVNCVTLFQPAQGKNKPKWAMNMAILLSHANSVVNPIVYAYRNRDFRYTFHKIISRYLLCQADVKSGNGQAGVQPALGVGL

[3] = molecular target: T4, human adenosine A3 receptors (Homo sapiens, UniProt P0DMS8); experiment: Adenosine receptor binding: binding affinities at hA3 receptors ([125I]-AB MECA displacement); conditions: Table 1; for Ki: [125I]-AB MECA displacement, CHO-K1 membranes, read-out: Binding Affinity hA3-Ki; for Binding Selectivity A3/A2a: ratio of Ki values
T4 construct: expressed in transfected cells; host or cells: CHO-K1
T4 sequence (P0DMS8 1-318): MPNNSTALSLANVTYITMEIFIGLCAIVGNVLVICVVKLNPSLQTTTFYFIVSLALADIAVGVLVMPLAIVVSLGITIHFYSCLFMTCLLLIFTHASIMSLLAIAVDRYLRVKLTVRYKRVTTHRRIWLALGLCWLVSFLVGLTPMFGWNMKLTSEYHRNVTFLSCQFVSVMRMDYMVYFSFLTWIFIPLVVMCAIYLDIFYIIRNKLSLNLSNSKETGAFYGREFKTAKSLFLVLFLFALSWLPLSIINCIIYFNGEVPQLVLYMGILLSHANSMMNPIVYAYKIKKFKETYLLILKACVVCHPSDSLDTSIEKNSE
Procedure: [formula] Adenosine Receptor Binding: Binding Affinities at hA3 Receptors
The resultant homogenate was kept for immediate use in the binding assay.
as §1, with “Total” for “Binding assays were performed in a total volume of 250 μL, containing [^3H]-DPCPX (3.0 nM), membranes and additional drugs. Total”, “pH 7.5,” for “pH:7.5,”, “10” for “300”, “IB-MECA.” for “N6-cyclohexyladenosine (CHA).”
as §2, §3

[4] = tested on: haloperidol-induced deficits in locomotor activity in mice; experiment: Haloperidol-induced hypolocomotion model (HaloLMA); format: in vivo; conditions: female TO mice, intraperitoneal, haloperidol 0.2 mg/kg
Text: Evaluation of Potential Anti-Parkinsonian Activity In Vivo: Haloperidol-Induced Hypolocomotion Model
This approach is also considered a valid method for screening drugs with potential antiparkinsonian effects. Thus, the ability of novel adenosine antagonists to block haloperidol-induced deficits in locomotor activity in mice can be used to assess both in vivo and potential antiparkinsonian efficacy.
Female TO mice (25-30 g) are used for all experiments. Animals are housed in groups of 8 (cage size-40 cm (width) by 40 cm (length) by 20 cm (height)) under 12 hour light/dark cycle (lights on 08:00), in a temperature (20±2° C.) and humidity (55±15%) controlled environment. Animals have free access to food and water, and are allowed at least 7 days to acclimatize after delivery before experimental use.
Liquid injectable haloperidol (e.g., 1 mL Serenance ampoules from Baker Norton, Harlow, Essex, each containing haloperidol BP 5 mg) are diluted to a final concentration of 0.02 mg/mL using saline. Test compounds are typically prepared as aqueous suspensions in 8% Tween. All compounds are administered intraperitoneally in a volume of 10 mL/kg.
1.5 hours before testing, mice are administered 0.2 mg/kg haloperidol, a dose that reduces baseline locomotor activity by at least 50%. Test substances are typically administered 5-60 minutes prior to testing. The animals are then placed individually into clean, clear polycarbonate cages (20 cm (width) by 40 cm (length) by 20 cm (height), with a flat perforated, Perspex lid). Horizontal locomotor activity is determined by placing the cages within a frame containing a 3 by 6 array of photocells linked to a computer, which tabulates beam breaks. Mice are left undisturbed to explore for 1 hour, and the number of beams breaks made during this period serves as a record of locomotor activity which is compared with data for control animals for statistically significant differences.
A number of the exemplified compounds of the present invention were tested in this assay and the results obtained are shown in Table 3, below.

T2 sequence (P29274 whole entry): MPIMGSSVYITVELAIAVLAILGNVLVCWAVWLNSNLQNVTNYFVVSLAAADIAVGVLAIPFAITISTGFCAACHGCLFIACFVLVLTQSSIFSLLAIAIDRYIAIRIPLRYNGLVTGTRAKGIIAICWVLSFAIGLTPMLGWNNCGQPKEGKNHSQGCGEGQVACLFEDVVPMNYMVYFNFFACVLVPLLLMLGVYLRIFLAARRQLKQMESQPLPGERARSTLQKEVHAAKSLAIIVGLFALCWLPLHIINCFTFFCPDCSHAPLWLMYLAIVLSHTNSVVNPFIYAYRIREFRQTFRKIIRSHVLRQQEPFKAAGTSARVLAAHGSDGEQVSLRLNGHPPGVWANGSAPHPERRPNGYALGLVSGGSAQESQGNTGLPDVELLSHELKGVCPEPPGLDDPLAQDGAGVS

SMILES | Ki [1] [nM] | Binding Selectivity A1/A2a [1] | Ki [2] [nM] | Ki (hA2B receptors) [nM] | Binding Selectivity A2b/A2a (hA2B receptors) | Ki [3] [nM] | Binding Selectivity A3/A2a [3] | In Vivo activity HaloLMA MED [4] [mg/kg] | melting point [°C]
Cc1ccc(-c2nc(N)nc3c2nnn3Cc2cccc(COCC3CCOC3)n2)o1 (racemic) [Example 34, 7-(5-methylfuran-2-yl)-3-(6-[tetrahydrofuran-3-ylmethyl]oxymethylpyrid-2-ylmethyl)-3H-[1,2,3]triazolo[4,5-d]pyrimidin-5-amine] | 164 | 40 | 4.1 | 1890 | 457 | 2120 | 513 | 1 | 168.7 to 168.9
COCc1cccc(Cn2nnc3c(-c4ccccc4)nc(N)nc32)n1 [Example 12, 7-phenyl-3-(6-[methoxymethyl]pyrid-2-ylmethyl)-3H-[1,2,3]triazolo[4,5-d]pyrimidin-5-amine] | 270 | 96 | 2.8 | 1000 | 354 | 8170 | 2893 | 10 | –
COc1cccc(-c2nc(N)nc3c2nnn3Cc2cccc(C(C)(C)O)n2)c1 [Example 14, 7-(3-methoxyphenyl)-3-(6-[1-hydroxy-1-methylethyl]pyrid-2-ylmethyl)-3H-[1,2,3]triazolo[4,5-d]pyrimidin-5-amine] | 498 | 83 | 6 | 437 | 73 | 613 | 102 | 30 | –
CC(C)(O)c1cccc(Cn2nnc3c(-c4cccc(C#N)c4)nc(N)nc32)n1 [Example 20, 7-(3-cyanophenyl)-3-(6-[1-hydroxy-1-methylethyl]pyrid-2-ylmethyl)-3H-[1,2,3]triazolo[4,5-d]pyrimidin-5-amine] | 731 | 54 | 13.4 | 1240 | 93 | – | 634 | 3 | –
Cc1csc(-c2nc(N)nc3c2nnn3Cc2cccc(C3(O)CCCC3)n2)n1 [Example 27, 7-(4-methylthiazol-2-yl)-3-(6-[1-hydroxy-1-cyclopentyl]pyrid-2-ylmethyl)-3H-[1,2,3]triazolo[4,5-d]pyrimidin-5-amine] | 1730 | 154 | 11.3 | 5740 | 510 | 7520 | 668 | 10 | –
COCc1cccc(Cn2nnc3c(-c4nc(C)cs4)nc(N)nc32)n1 [Example 30, 7-(4-methylthiazol-2-yl)-3-(6-[methoxymethyl]pyrid-2-ylmethyl)-3H-[1,2,3]triazolo[4,5-d]pyrimidin-5-amine] | 799 | 168 | 4.8 | 2370 | 498 | 4600 | 965 | 3 | –
Cc1ccc(-c2nc(N)nc3c2nnn3Cc2cccc(COC(F)F)n2)o1 [Example 31, 7-(5-methylfuran-2-yl)-3-(6-[difluoromethyloxymethyl]-pyrid-2-ylmethyl)-3H-[1,2,3]triazolo[4,5-d]pyrimidin-5-amine] | – | – | – | – | – | – | – | 1 | 194.8 to 195.1
CCOCCOCc1cccc(Cn2nnc3c(-c4ccc(C)o4)nc(N)nc32)n1 [Example 32] | 334 | 73 | 4.6 | 2020 | 442 | 2500 | 545 | 1 | –
Cc1ccc(-c2nc(N)nc3c2nnn3Cc2cccc(COCC3CCCO3)n2)o1 (stereo not drawn) [Example 33, 745-methylfuran-2-yl-3-(6-[tetrahydrofuran-2-ylmethyl]oxymethylpyrid-2-ylmethyl)-3H-[1,2,3]triazolo[4,5-d]pyrimidin-5-amine] | 299 | 42 | 7.2 | 1980 | 274 | 2180 | 303 | 3 | 154.2 to 154.5
Cc1ccc(-c2nc(N)nc3c2nnn3Cc2cccc(COCC(F)(F)F)n2)o1 [Example 37, 7-(5-methylfuran-2-yl)-3-(6-[2,2,2-trifluoroethyl]oxymethylpyrid-2-ylmethyl)-3H-[1,2,3]triazolo[4,5-d]pyrimidin-5-amine] | 231 | 52 | 4.4 | 2380 | 536 | 2490 | 560 | 1 | –
